{"source": "patent US9901624B2", "about": "“Methods and compositions for treating nephrogenic diabetes insipidus” (The United States of America as represented by the …, priority 2004, dated 2018)", "key": {"[1]": {"target": "T1, P2Y2 receptor (Rattus norvegicus, UniProt P41232)", "T1 construct": "Freshly prepared IMCD-enriched fractions were incubated at 37.degree; C. under physiological conditions; from tissue; host or cells: rat kidney inner medulla / inner medullary collecting duct (IMCD) preparations", "T1 sequence (P41232 whole entry)": "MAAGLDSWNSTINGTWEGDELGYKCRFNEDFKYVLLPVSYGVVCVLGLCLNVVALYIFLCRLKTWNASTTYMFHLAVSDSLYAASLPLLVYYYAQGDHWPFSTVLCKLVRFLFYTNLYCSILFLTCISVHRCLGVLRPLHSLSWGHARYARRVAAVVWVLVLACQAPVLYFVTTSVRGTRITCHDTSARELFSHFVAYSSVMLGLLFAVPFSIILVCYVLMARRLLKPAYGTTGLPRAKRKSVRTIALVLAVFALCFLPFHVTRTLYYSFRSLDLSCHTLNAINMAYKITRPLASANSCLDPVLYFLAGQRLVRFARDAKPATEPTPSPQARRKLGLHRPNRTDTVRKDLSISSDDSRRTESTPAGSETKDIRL", "conditions": "reversible fashion; cited from earlier work"}, "[2]": {"target": "P2Y4 (Homo sapiens, UniProt P51582)", "sequence (P51582 whole entry)": "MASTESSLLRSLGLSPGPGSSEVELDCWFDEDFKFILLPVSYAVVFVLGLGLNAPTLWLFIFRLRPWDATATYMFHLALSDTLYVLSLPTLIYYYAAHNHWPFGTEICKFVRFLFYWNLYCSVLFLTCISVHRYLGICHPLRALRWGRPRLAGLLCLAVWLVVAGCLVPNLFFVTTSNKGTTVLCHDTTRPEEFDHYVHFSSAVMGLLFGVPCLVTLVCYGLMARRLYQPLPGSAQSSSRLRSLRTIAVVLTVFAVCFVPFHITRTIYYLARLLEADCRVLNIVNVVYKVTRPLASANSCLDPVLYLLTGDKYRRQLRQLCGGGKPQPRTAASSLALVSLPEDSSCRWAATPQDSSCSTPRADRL", "conditions": "cDNA library source: Human chromosome X; cited from earlier work"}, "[3]": {"target": "T2, P2Y11 (Homo sapiens, UniProt Q96G91)", "T2 sequence (Q96G91 1-374)": "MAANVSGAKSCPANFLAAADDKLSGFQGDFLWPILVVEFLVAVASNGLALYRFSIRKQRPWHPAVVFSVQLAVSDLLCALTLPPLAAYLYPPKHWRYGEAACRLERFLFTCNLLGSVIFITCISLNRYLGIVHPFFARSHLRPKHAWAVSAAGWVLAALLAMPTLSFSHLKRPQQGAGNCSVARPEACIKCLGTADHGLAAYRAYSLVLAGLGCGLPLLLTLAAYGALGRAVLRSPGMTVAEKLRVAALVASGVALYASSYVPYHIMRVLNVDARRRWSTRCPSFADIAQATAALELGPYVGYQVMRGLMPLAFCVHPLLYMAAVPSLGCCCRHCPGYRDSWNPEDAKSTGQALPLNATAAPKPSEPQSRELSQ", "conditions": "cDNA library source: Human placenta; cited from earlier work"}, "[4]": {"target": "P2Y1 (Gallus gallus, UniProt P34996)", "sequence (P34996 whole entry)": "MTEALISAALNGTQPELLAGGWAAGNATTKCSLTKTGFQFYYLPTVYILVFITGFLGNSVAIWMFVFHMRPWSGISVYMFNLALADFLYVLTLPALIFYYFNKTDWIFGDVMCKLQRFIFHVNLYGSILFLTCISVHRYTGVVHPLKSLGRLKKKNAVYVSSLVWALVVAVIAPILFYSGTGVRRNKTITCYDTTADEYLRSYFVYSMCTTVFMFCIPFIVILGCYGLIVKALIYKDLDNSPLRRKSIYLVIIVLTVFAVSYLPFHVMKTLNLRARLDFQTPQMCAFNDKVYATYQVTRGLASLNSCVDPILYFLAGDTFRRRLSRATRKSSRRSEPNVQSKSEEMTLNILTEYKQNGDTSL", "conditions": "cDNA library source: Chick brain; cited from earlier work"}, "[5]": {"target": "P2Y1 (Rattus norvegicus, UniProt P49651)", "sequence (P49651 whole entry)": "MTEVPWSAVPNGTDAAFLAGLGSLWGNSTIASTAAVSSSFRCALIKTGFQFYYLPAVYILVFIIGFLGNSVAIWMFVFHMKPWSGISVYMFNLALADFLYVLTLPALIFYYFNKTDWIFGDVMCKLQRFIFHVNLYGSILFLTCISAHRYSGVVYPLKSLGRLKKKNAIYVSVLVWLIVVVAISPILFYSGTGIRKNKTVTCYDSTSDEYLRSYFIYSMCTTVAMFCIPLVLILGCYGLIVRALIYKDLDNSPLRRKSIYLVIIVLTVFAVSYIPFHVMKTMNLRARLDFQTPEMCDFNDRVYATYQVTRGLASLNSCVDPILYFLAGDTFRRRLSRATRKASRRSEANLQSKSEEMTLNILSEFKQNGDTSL", "conditions": "cited from earlier work"}, "[6]": {"target": "P2Y1 (Meleagris gallopavo, UniProt P49652)", "sequence (P49652 whole entry)": "as the sequence (P34996 whole entry) above, with T28S counted along it", "conditions": "cDNA library source: Turkey brain; cited from earlier work"}, "[7]": {"conditions": "in vivo; cited from earlier work"}, "[8]": {"tested_on": "P2Y2 receptor-stimulated PGE2 release by IMCD", "assay": "Apyrase treatment in rats: basal and ATPγS-stimulated ex vivo PGE2 release by IMCD", "set-up": "species or system Sprague-Dawley rats", "procedure": "(§1) It is non-toxic and safe to administer either intravenously or intraperitoneally. Two experiments were conducted. In one experiment Sprague-Dawley rats were divided into two groups (N=4 per group). One group was fed with regular rat chow, while the other was fed regular rat chow to which Lithium Chloride was added to a concentration of 40 mmol/kg wt of the food. Both groups were fed for 14 days without any other treatment. The second experiment was similar to the first one, except that potato apyrase (Sigma Chemical Co) was administered to both regular and lithium-added diet fed rats front day 7 to day 14 at a dose of 100 units/kg body wt. intraperitoneally, three times a day (˜8 hourly intervals). All rats had free access to drinking water. Twenty-four hour urine samples were collected from all rats on day 7 and 14 prior to euthanasia, and analyzed. All rats were euthanized on day 14, and IMCD suspensions were prepared. Basal and ATPγS-stimulated ex vivo PGE2 release by IMCD was determined as per the methods previously established."}, "[9]": {"assay": "Apyrase treatment day 7 to 14 in lithium-fed and regular diet rats: urine flow", "type": "in vivo, Sprague-Dawley rats", "procedure": "as §1"}, "[10]": {"tested_on": "purinergic-driven PGE2 production by IMCD", "conditions": "normal rats chronically infused with dDAVP 20 ng/h; cited from earlier work"}, "[11]": {"tested_on": "P2Y2 receptor", "conditions": "chronic dDAVP infusion; cited from earlier work"}, "[12]": {"tested_on": "V2 receptor", "conditions": "chronic dDAVP infusion; cited from earlier work"}, "[13]": {"conditions": "control rats fed with regular diet"}}, "note": "Entries after “also recorded” stand apart in the source; their conditions may differ. Where two headings read alike, the source gives them in different places."}
{"compound": "Nc1ncnc2c1ncn2[C@@H]1O[C@H](COP(=O)(O)OP(=O)(O)O)[C@@H](O)[C@H]1O", "note": "[ADP]", "values": [{"measurement": "AVP-stimulated osmotic water permeability (Pf)", "setting": "[1]", "result": "not"}]}
{"compound": "Nc1ncnc2c1ncn2[C@@H]1O[C@H](COP(=O)(O)OP(=O)(O)OP(=O)(O)O)[C@@H](O)[C@H]1O", "note": "[ATP]", "values": [{"measurement": "Agonist activity", "setting": "[2]", "result": "UTP > UDP (ATP inactive)"}, {"measurement": "AVP-stimulated osmotic water permeability (Pf)", "setting": "[1]", "result": "decreased"}]}
{"compound": "O=c1ccn([C@@H]2O[C@H](COP(=O)(O)OP(=O)(O)O)[C@@H](O)[C@H]2O)c(=O)[nH]1", "note": "[UDP]", "values": [{"measurement": "Agonist activity", "setting": "[3]", "result": "(UTP, UDP inactive)"}]}
{"compound": "O=c1ccn([C@@H]2O[C@H](COP(=O)(O)OP(=O)(O)OP(=O)(O)O)[C@@H](O)[C@H]2O)c(=O)[nH]1", "note": "[UTP]", "values": [{"measurement": "Agonist activity", "setting": "[4]", "result": "inactive)"}, {"measurement": "Agonist activity", "setting": "[3]", "result": "(UTP, UDP inactive)"}, {"measurement": "AVP-stimulated osmotic water permeability (Pf)", "setting": "[1]", "result": "decreased"}, {"measurement": "Agonist activity", "setting": "[5]; cDNA library source: Rat ileal myocytes", "result": "ATP (UTP inactive)"}, {"measurement": "Agonist activity", "setting": "[6]", "result": "inactive)"}]}
{"compound": "COc1ccc2c(c1)c(CC(=O)O)c(C)n2C(=O)c1ccc(Cl)cc1", "note": "[indomethacin]", "values": [{"measurement": "polyuria of acquired NDI", "setting": "[7]", "result": "prevented the polyuria; also recorded: ameliorated"}]}
{"compound": "Nc1ncnc2c1ncn2[C@@H]1O[C@H](COP(=O)(O)CP(=O)(O)OP(=O)(O)O)[C@@H](O)[C@H]1O", "note": "[α,β-meATP]", "values": [{"measurement": "Agonist activity", "setting": "[5]; cDNA library source: Rat insulinoma cells", "result": "(α,β-meATP inactive)"}]}
{"compound": "apyrase", "values": [{"measurement": "P2Y2-mediated PGE2 release by IMCD", "setting": "[8]; [13]", "result": "did not change"}, {"measurement": "P2Y2 receptor-stimulated PGE2 release by IMCD", "setting": "[8]; lithium-fed rats, compared to apyrase-untreated lithium-fed rats", "result": "significantly decreased"}, {"measurement": "urine output", "setting": "[9]; [13]", "result": "did not change"}, {"measurement": "urine flow induced by lithium", "setting": "[9]; lithium-fed rats, apyrase day 7 to 14, 100 units/kg intraperitoneally three times a day", "result": "prevented further increase in the urine flow"}]}
{"compound": "dDAVP", "values": [{"measurement": "purinergic-driven PGE2 production by IMCD", "setting": "[10]", "result": "significantly decreased"}, {"measurement": "mRNA expression of P2Y2 receptor, down-regulated to", "setting": "[11]", "result": 54, "unit": "%"}, {"measurement": "protein abundance of P2Y2 receptor, down-regulated to", "setting": "[11]", "result": 49, "unit": "%"}, {"measurement": "expression of V2 receptor mRNA", "setting": "[12]", "result": "did not change significantly"}]}
